Test results: paper PMC10022191, “Safety, tolerability, pharmacokinetics, and antiviral activity of the novel core protein allosteric modulator ZM-H1505R (Canocapavir) in chronic hepatitis B patients: a randomized multiple-dose escalation trial” (BMC Medicine, 2023)

Assay: phase 1b trial: adverse reactions and tolerability in CHB patients
Assay type: in vivo, human
Details: 28 days
Description: This was a randomized, open-label, placebo-controlled, phase 1b study (Clinical Trial Registration Number: NCT05470829; Chinese Clinical Trial Registration Number: CTR20210686), which was conducted at the Phase I Clinical Research Center, The First Hospital of Jilin University (Jilin, China), during the period from May to November of 2021. In order to minimize the safety risk of Canocapavir, an adaptive ascending dosing strategy was adopted for Canocapavir treatment in this study. The second and third assigned doses were initiated only after the safety data from the previous dose was reviewed and determined to be safe by the Principal Investigator and the Sponsor on day 8 postdosing (post drug administration days). Canocapavir was administered at the Clinical Research Center on days 1–8 and day 28 and at home on days 9–27 under the same conditions (fixed administration time and fasting condition). Patients were required to visit the facility for follow-up on days 15, 22, 27, 43 ± 1, and 57 ± 2 postdosing. The study protocol and informed consent forms were prepared according to the principles of the Declaration of Helsinki. The study protocol was approved by the Institutional Review Board of the First Hospital of Jilin University (approval number: 20Y201-006). All recruited patients provided written informed consent before participating in any study-related procedures.
A total of 30 CHB patients were recruited in this study and were randomly assigned into three cohorts (N = 10, each). In these three cohorts, the patients (in a ratio of 4:1) received 50, 100, or 200 mg of Canocapavir or placebo once a day for 28 consecutive days under fasting conditions, followed by a 28-day follow-up (Fig. 1). The patients, care providers, and those assessing outcomes were blinded during the study. This random process was completed in an electronic data capture system, and the details are shown in Additional file 1.
To examine possible adverse events (AEs) and adverse reactions (an adverse event is definitely, probably, or possibly related to the drug) in this study, the recruited patients underwent regular clinical laboratory testing, 12-lead electrocardiograms, examination of vital signs, abdominal ultrasound, and regular physical examinations, using the baseline data as a control. The severity of AEs and laboratory abnormalities were graded according to the Common Terminology Criteria for Adverse Events (CTCAE), version 5.0, which defines toxicity criteria. The AEs were coded using the Medical Dictionary for Regulatory Activities, version 24.1 (McLean, VA, USA).

## O=C1CO[C@H](c2cn(-c3ccc(Br)cc3)nc2-c2ccc(F)cc2)N1CCc1ccc2[nH]c(=O)[nH]c2c1 [Canocapavir]
50 mg q.d.
  Adverse reactions, grade I, number of subjects: 2 n
  Adverse reactions, grade I, percent of subjects: 25.00%
  Adverse reactions, grade II, number of subjects: 0 n
  Adverse reactions, grade II, percent of subjects: 0%
  Adverse reactions, grade III, number of subjects: 1 n
  Adverse reactions, grade III, percent of subjects: 12.50%
  Adverse reactions, total (all grades), number of subjects: 3 n
  Adverse reactions, total (all grades), percent of subjects: 37.5%
  Decreased neutrophil count, cases: 1 case
  Decreased neutrophil count, grade II, number of subjects: 0 n
  Decreased neutrophil count, grade II, percent of subjects: 0%
  Decreased neutrophil count, grade III, percent of subjects: 12.50%
  Decreased neutrophil count, number of subjects (%): 1 (12.5) n (%)
  Decreased platelet count, cases: 0 case
  Decreased platelet count, grade I, number of subjects: 0 n
  Decreased platelet count, grade I, percent of subjects: 0%
  Decreased platelet count, number of subjects (%): 0 (0) n (%)
  Decreased serum phosphorus, cases: 0 case
  Decreased serum phosphorus, grade I, number of subjects: 0 n
  Decreased serum phosphorus, grade I, percent of subjects: 0%
  Decreased serum phosphorus, number of subjects (%): 0 (0) n (%)
  Decreased white blood cell count, cases: 1 case
  Decreased white blood cell count, grade II, percent of subjects: 12.50%
  Decreased white blood cell count, number of subjects (%): 1 (12.5) n (%)
  Hypertriglyceridemia, cases: 0 case
  Hypertriglyceridemia, grade III, number of subjects: 0 n
  Hypertriglyceridemia, grade III, percent of subjects: 0%
  Hypertriglyceridemia, number of subjects (%): 0 (0) n (%)
  Increased alanine aminotransferase, cases: 2 case
  Increased alanine aminotransferase, grade I, number of subjects: 2 n
  Increased alanine aminotransferase, grade I, percent of subjects: 25.00%
  Increased alanine aminotransferase, grade II, number of subjects: 0 n
  Increased alanine aminotransferase, grade II, percent of subjects: 0%
  Increased alanine aminotransferase, number of subjects (%): 2 (25) n (%)
  Increased aspartate aminotransferase, cases: 1 case
  Increased aspartate aminotransferase, grade I, number of subjects: 1 n
  Increased aspartate aminotransferase, grade I, percent of subjects: 12.50%
  Increased aspartate aminotransferase, grade II, number of subjects: 0 n
  Increased aspartate aminotransferase, grade II, percent of subjects: 0%
  Increased aspartate aminotransferase, number of subjects (%): 1 (12.5) n (%)
  Increased bilirubin, cases: 0 case
  Increased bilirubin, grade I, number of subjects: 0 n
  Increased bilirubin, grade I, percent of subjects: 0%
  Increased bilirubin, number of subjects (%): 0 (0) n (%)
  Increased creatinine, cases: 1 case
  Increased creatinine, grade I, number of subjects: 1 n
  Increased creatinine, grade I, percent of subjects: 12.50%
  Increased creatinine, number of subjects (%): 1 (12.5) n (%)
  Increased γ-glutamyltransferase, cases: 0 case
  Increased γ-glutamyltransferase, grade I, number of subjects: 0 n
  Increased γ-glutamyltransferase, grade I, percent of subjects: 0%
  Increased γ-glutamyltransferase, number of subjects (%): 0 (0) n (%)
  Rash, cases: 0 case
  Rash, grade I, number of subjects: 0 n
  Rash, grade I, percent of subjects: 0%
  Rash, number of subjects (%): 0 (0) n (%)
  Total adverse reactions, cases: 6 case
  Total adverse reactions, number of subjects (%): 3 (37.5) n (%)
100 mg q.d.
  Adverse reactions, grade I, number of subjects: 4 n
  Adverse reactions, grade I, percent of subjects: 50.00%
  Adverse reactions, grade II, number of subjects: 1 n
  Adverse reactions, grade II, percent of subjects: 12.50%
  Adverse reactions, grade III, number of subjects: 0 n
  Adverse reactions, grade III, percent of subjects: 0%
  Adverse reactions, total (all grades), number of subjects: 5 n
  Adverse reactions, total (all grades), percent of subjects: 62.5%
  Decreased neutrophil count, cases: 1 case
  Decreased neutrophil count, grade II, percent of subjects: 12.50%
  Decreased neutrophil count, grade III, number of subjects: 0 n
  Decreased neutrophil count, grade III, percent of subjects: 0%
  Decreased neutrophil count, number of subjects (%): 1 (12.5) n (%)
  Decreased platelet count, cases: 1 case
  Decreased platelet count, grade I, number of subjects: 1 n
  Decreased platelet count, grade I, percent of subjects: 12.50%
  Decreased platelet count, number of subjects (%): 1 (12.5) n (%)
  Decreased serum phosphorus, cases: 0 case
  Decreased serum phosphorus, grade I, number of subjects: 0 n
  Decreased serum phosphorus, grade I, percent of subjects: 0%
  Decreased serum phosphorus, number of subjects (%): 0 (0) n (%)
  Decreased white blood cell count, cases: 1 case
  Decreased white blood cell count, grade II, percent of subjects: 12.50%
  Decreased white blood cell count, number of subjects (%): 1 (12.5) n (%)
  Hypertriglyceridemia, cases: 0 case
  Hypertriglyceridemia, grade III, number of subjects: 0 n
  Hypertriglyceridemia, grade III, percent of subjects: 0%
  Hypertriglyceridemia, number of subjects (%): 0 (0) n (%)
  Increased alanine aminotransferase, cases: 3 case
  Increased alanine aminotransferase, grade I, number of subjects: 3 n
  Increased alanine aminotransferase, grade I, percent of subjects: 37.50%
  Increased alanine aminotransferase, grade II, number of subjects: 0 n
  Increased alanine aminotransferase, grade II, percent of subjects: 0%
  Increased alanine aminotransferase, number of subjects (%): 3 (37.5) n (%)
